From US8586739B2, “Heterocyclic compounds and their uses” (Amgen Inc., priority 2007, dated 2013)

Columns and labels:
P110β = settings: cited from earlier work
PI3Kδ = target: T1, PI3Kδ (Homo sapiens, UniProt O00329); assay: In vitro enzyme assay of recombinant PI3K (residual ATP bioluminescence); type: biochemical
T1 construct: Full length p110 subunits of PI3k α, β and δ, N-terminally labeled with polyHis tag; polyHis (N); made in house; host or cells: Sf9 insect cells (baculovirus)
Method: Recombinant Expression of PI3Ks
Full length p110 subunits of PI3k α, β and δ, N-terminally labeled with polyHis tag, were coexpressed with p85 with Baculo virus expression vectors in sf9 insect cells. P110/p85 heterodimers were purified by sequential Ni-NTA, Q-HP, Superdex-100 chromatography. Purified α, β and δ isozymes were stored at −20° C. in 20 mM Tris, pH 8, 0.2M NaCl, 50% glycerol, 5 mM DTT, 2 mM Na cholate. Truncated PI3Kγ, residues 114-1102, N-terminally labeled with polyHis tag, was expessed with Baculo virus in Hi5 insect cells. The γ isozyme was purified by sequential Ni-NTA, Superdex-200, Q-HP chromatography. The γ isozyme was stored frozen at −80° C. in NaH2PO4, pH 8, 0.2M NaCl, 1% ethylene glycol, 2 mM β-mercaptoethanol.
Assays were performed in 25 μL with the above final concentrations of components in white polyproplyene plates (Costar 3355). Phospatidyl inositol phosphoacceptor, PtdIns(4,5)P2 P4508, was from Echelon Biosciences. The ATPase activity of the alpha and gamma isozymes was not greatly stimulated by PtdIns(4,5)P2 under these conditions and was therefore omitted from the assay of these isozymes. Test compounds were dissolved in dimethyl sulfoxide and diluted with three-fold serial dilutions. The compound in DMSO (1 μL) was added per test well, and the inhibition relative to reactions containing no compound, with and without enzyme was determined. After assay incubation at room temperature, the reaction was stopped and residual ATP determined by addition of an equal volume of a commercial ATP bioluminescence kit (Perkin Elmer EasyLite) according to the manufacturer's instructions, and detected using a AnalystGT luminometer.

[1] = system: mouse model of rheumatoid arthritis; settings: in vivo; cited from earlier work
[2] = system: model of systemic lupus erythematosis; settings: in vivo; cited from earlier work
p110δ = settings: cited from earlier work
protein kinases = settings: cited from earlier work
murine model of asthma = settings: ovalbumin-induced airway inflammation; cited from earlier work

T1 sequence (O00329 whole entry): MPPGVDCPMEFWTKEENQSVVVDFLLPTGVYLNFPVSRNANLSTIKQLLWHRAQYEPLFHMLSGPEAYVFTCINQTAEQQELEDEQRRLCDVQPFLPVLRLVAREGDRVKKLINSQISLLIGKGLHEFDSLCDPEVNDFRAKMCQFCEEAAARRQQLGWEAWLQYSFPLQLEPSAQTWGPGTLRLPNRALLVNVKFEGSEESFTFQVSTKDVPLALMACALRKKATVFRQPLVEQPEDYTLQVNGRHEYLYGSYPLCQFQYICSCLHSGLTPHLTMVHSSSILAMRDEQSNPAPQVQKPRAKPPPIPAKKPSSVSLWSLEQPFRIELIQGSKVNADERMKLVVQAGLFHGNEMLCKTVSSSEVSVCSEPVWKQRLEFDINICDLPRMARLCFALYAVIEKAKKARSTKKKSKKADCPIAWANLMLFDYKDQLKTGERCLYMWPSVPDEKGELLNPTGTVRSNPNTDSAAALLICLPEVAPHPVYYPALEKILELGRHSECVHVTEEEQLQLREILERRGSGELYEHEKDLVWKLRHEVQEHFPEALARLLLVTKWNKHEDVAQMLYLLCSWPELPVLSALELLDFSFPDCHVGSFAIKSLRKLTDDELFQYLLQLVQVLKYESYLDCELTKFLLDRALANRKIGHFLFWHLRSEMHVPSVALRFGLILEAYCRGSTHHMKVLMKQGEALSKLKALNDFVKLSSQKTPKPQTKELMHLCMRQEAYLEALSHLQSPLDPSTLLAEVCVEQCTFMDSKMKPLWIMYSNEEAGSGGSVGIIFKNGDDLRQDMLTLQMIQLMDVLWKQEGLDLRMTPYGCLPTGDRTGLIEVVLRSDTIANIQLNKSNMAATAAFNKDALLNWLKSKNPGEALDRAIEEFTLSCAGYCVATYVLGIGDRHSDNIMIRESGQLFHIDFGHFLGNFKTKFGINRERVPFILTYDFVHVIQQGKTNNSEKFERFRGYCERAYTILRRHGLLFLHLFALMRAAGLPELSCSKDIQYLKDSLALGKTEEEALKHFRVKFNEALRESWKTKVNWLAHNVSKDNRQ
T1 sequence (P27986 whole entry partner): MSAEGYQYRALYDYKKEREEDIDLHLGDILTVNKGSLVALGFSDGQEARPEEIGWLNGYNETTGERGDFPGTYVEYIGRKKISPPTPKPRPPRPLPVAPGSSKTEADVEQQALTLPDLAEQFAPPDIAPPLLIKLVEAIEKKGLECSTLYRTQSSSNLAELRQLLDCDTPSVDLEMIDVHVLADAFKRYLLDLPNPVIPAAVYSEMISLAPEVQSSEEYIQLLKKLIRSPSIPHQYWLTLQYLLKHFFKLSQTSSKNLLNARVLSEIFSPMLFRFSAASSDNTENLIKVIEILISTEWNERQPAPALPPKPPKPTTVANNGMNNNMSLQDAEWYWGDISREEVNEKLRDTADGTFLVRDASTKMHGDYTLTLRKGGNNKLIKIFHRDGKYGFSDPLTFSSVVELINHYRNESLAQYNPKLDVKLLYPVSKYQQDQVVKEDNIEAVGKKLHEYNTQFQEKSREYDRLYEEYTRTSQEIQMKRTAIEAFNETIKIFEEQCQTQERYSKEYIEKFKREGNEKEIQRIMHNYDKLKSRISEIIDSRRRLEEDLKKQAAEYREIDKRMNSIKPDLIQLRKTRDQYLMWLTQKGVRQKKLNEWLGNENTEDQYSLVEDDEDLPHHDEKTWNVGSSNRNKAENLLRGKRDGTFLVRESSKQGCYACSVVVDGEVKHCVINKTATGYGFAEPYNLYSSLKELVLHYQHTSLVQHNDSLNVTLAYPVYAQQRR

Question: For `Cc1cc(C(C)Nc2ccccc2)c2nc(N3CCOCC3)cc(=O)n2c1` (stereo not shown) [TGX-221], which selective over alpha (P110β; beta versus alpha) is on record?
Answer: The selective over alpha was “more than 500 fold”.

Question: And the selective over delta (P110β; beta versus delta)?
Answer: The selective over delta was 14 fold.

Question: What about the selective over gamma (P110β; beta versus gamma) of the same molecule?
Answer: Its selective over gamma is “more than 500 fold”.

Question: What about the IC50 (P110β; read-out: potency on beta) of the same molecule?
Answer: Its IC50 is 7 nM.

Question: Which IC50 (PI3Kδ) does the source give for `Clc1ccccc1-c1nc2c(Cl)cccc2cc1CNc1ncnc2[nH]cnc12` [Example 2, N-((8-Chloro-2-(2-chlorophenyl)quinolin-3-yl)-methyl)-9H-purin-6-amine] here?
Answer: The IC50 was 68 nM.

Question: With `O=C1NC(=O)/C(=C\c2ccc3nccnc3c2)S1` [AS 605240] as the molecule, how does the “efficacy in a mouse model of rheumatoid arthritis” value [1] read?
Answer: The value was “efficacious”.

Question: What about the “onset of disease in a model of systemic lupus erythematosis” value [2] of the same molecule?
Answer: The value was “delay onset of disease”.

Question: With `C[C@H](Nc1ncnc2[nH]cnc12)c1cc2cccc(Cl)c2nc1-c1cccc(F)c1` [N-((S)-1-(8-Chloro-2-(3-fluorophenyl)quinolin-3-yl)ethyl)-9H-purin-6-amine] as the molecule, how does the IC50 (PI3Kδ) read?
Answer: The IC50 was 6 nM.

Question: For `Fc1ccc(OCc2ccccc2)c(-c2nc3c(Cl)cccc3cc2CNc2ncnc3[nH]cnc23)c1` [Example 39, N-((2-(2-(Benzyloxy)-5-fluorophenyl)-8-chloroquinolin-3-yl)methyl)-9H-purin-6-amine], which IC50 (PI3Kδ) is on record?
Answer: Its IC50 is 31 nM.

Question: With `Cc1ccccc1-c1nc2c(C)cccc2cc1C(C)Oc1ncnc2[nH]cnc12` (stereo not shown) [Example 5, 3-(1-(9H-Purin-6-yloxy)ethyl)-8-methyl-2-o-tolylquinoline] as the molecule, how does the IC50 (PI3Kδ) read?
Answer: Its IC50 is 12 nM.

Question: For `Cc1ccccc1-c1nc2c(C)cccc2cc1CNc1ncnc2[nH]cnc12` [Example 1, N-((8-Methyl-2-o-tolylquinolin-3-yl)methyl)-9H-purin-6-amine], which IC50 (PI3Kδ) is on record?
Answer: Its IC50 is 84 nM.

Question: With `Cc1ccccc1-n1c(Cn2cnc3c(N)ncnc32)nc2cccc(C)c2c1=O` [IC87114] as the molecule, how does the “inhibits p110δ” value (p110δ) read?
Answer: Its value is “high nanomolar range (triple digit)”.

Question: What about the “activity against any protein kinases tested” value (protein kinases) of the same molecule?
Answer: Its value is “no activity”.

Question: What about the “inflammation and disease in a murine model of asthma” value (murine model of asthma) of the same molecule?
Answer: Its value is “significantly ameliorate inflammation and disease”.

Question: With `Cc1ccccc1-c1nc2c(C)cccc2cc1COc1ncnc2[nH]ccc12` [Example 14] as the molecule, how does the IC50 (PI3Kδ) read?
Answer: Its IC50 is 56 nM.

Question: Which IC50 (PI3Kδ) does the source give for `C[C@H](Nc1ncnc2[nH]cnc12)c1cc2cccc(Cl)c2nc1-c1cscn1` [Example 44, N-((S)-1-(8-Chloro-2-(thiazol-4-yl)quinolin-3-yl)ethyl)-9H-purin-6-amine] here?
Answer: Its IC50 is 16 nM.

Question: For `Cc1cccc2cc(COc3ncnc4[nH]cnc34)c(-c3ccccc3-c3ccccc3)nc12` [Example 8, 3-((9H-Purin-6-yloxy)methyl)-2-(biphenyl)-8-methylquinoline], which IC50 (PI3Kδ) is on record?
Answer: The IC50 was 22 nM.

Question: Which IC50 (PI3Kδ) does the source give for `COc1ccccc1-c1nc2c(C)cccc2cc1COc1ncnc2[nH]cnc12` [Example 7, 3-((9H-Purin-6-yloxy)methyl)-2-(2-methoxyphenyl)-8-methylquinoline] here?
Answer: Its IC50 is 38 nM.

Question: For `Cc1cccc2cc(COc3ncnc4[nH]cnc34)c(-c3ccccc3Cl)nc12` [Example 10, 3-((9H-Purin-6-yloxy)methyl)-2-(2-chlorophenyl)-8-methylquinoline], which IC50 (PI3Kδ) is on record?
Answer: The IC50 was 25 nM.

Question: Which IC50 (PI3Kδ) does the source give for `Fc1cc2cc(CNc3ncnc4[nH]cnc34)c(-c3ccccc3Cl)nc2cc1F` [Example 38, N-((2-(2-Chlorophenyl)-6,7-difluoroquinolin-3-yl)methyl)-9H-purin-6-amine] here?
Answer: Its IC50 is 551 nM.

Question: For `Clc1cccc2cc(CNc3ncnc4[nH]cnc34)c(Oc3ccccc3)nc12` [Example 30, N-((8-Chloro-2-phenoxyquinolin-3-yl)methyl)-9H-purin-6-amine], which IC50 (PI3Kδ) is on record?
Answer: The IC50 was 125 nM.

Question: With `Fc1ccc2nc(-c3ccccc3Cl)c(CNc3ncnc4[nH]cnc34)cc2c1` [Example 37, N-((2-(2-Chlorophenyl)-6-fluoroquinolin-3-yl)methyl)-9H-purin-6-amine] as the molecule, how does the IC50 (PI3Kδ) read?
Answer: Its IC50 is 1680 nM.

Question: Which IC50 (PI3Kδ) does the source give for `CC[C@H](Nc1ncnc2[nH]cnc12)c1cc2cccc(Cl)c2nc1-c1cccc(F)c1` [Example 42, N-((S)-1-(8-Chloro-2-(3-fluorophenyl)quinolin-3-yl)propyl)-9H-purin-6-amine] here?
Answer: The IC50 was 13 nM.

Question: With `COc1nc(NCc2cc3cccc(Cl)c3nc2-c2ccccc2Cl)c2cc[nH]c2n1` [Example 4, N-((8-Chloro-2-(2-chlorophenyl)quinolin-3-yl)methyl)-2-meth-oxy-7H-pyrrolo[2,3-d]pyrimidin-4-amine] as the molecule, how does the IC50 (PI3Kδ) read?
Answer: Its IC50 is 5420 nM.

Question: Which IC50 (PI3Kδ) does the source give for `Cc1ccccc1-c1nc2c(C)cccc2cc1CSc1ncnc2[nH]cnc12` [Example 12, 3-((9H-Purin-6-ylthio)methyl)-8-methyl-2-o-tolylquinoline] here?
Answer: Its IC50 is 889 nM.

Question: With `Fc1cc(F)cc(-c2nc3c(Cl)cccc3cc2CNc2ncnc3[nH]cnc23)c1` [Example 33, N-((8-Chloro-2-(3,5-difluorophenyl)quinolin-3-yl)methyl)-9H-purin-6-amine] as the molecule, how does the IC50 (PI3Kδ) read?
Answer: The IC50 was 76 nM.

Question: Which IC50 (PI3Kδ) does the source give for `Fc1ccc2cc(CNc3ncnc4[nH]cnc34)c(-c3ccccc3Cl)nc2c1` [Example 36, N-((2-(2-Chlorophenyl)-7-fluoroquinolin-3-yl)methyl)-9H-purin-6-amine] here?
Answer: Its IC50 is 225 nM.

Question: Which IC50 (PI3Kδ) does the source give for `C[C@H](Nc1ncnc2[nH]cnc12)c1cc2ccc(F)cc2nc1-c1cccs1` [Example 46, N-((S)-1-(7-Fluoro-2-(thiophen-2-yl)quinolin-3-yl)ethyl)-9H-purin-6-amine] here?
Answer: The IC50 was 8 nM.
